Results: patent US20210221866A1, “PROTEASE-RESISTANT LIPIDATED GLP-1 ANALOGS” (MEDIMMUNE LIMITED, priority 2015, published 2021)
pEC50: −log10 of the molar value. Where two headings read alike, the source gives them in different places. Numbered stars: 1 amine (or outer) side, 2 acyl side, 3 side chain; on linkers, the order of the positions; unused ones are H or OH. Square brackets hold non-standard residues; d marks the D form. Side chains are listed from the residue outwards. Peptide text beside a SMILES is read from it. * marks the point of attachment. C18 diacid = O=C(O)CCCCCCCCCCCCCCCCC(=O)*; C16 diacid = O=C(O)CCCCCCCCCCCCCCC(=O)*; γGlu = O=C(O)[C@H](CCC(=O)[*:2])N[*:1]; αMeF = C[C@](N)(Cc1ccccc1)C(=O)O; αMeK = C[C@](N)(CCCCN)C(=O)O; αMeS = C[C@](N)(CO)C(=O)O; AEEA = NCCOCCOCC(=O)O; Aib = CC(C)(N)C(=O)O

Legend:
Assay type in all cases: cell-based
[1] = target: T1, human glucagon receptor (GCGR) (Homo sapiens, UniProt P47871); assay: cAMP assay, human GCGR cells
T1 construct: expressed in transfected cells; host or cells: HEK293 cells or CHO cells
Protocol: (§1) Sample dilutions are made in duplicate.
(§2) A frozen cryo-vial of cells expressing the receptor of interest is thawed rapidly in a water-bath, transferred to pre-warmed assay buffer and spun at 240×g for 5 minutes. Cells are re-suspended in assay buffer at a batch-dependent optimized concentration (e.g. hGCGR cells at 2×10^5 cells/ml, hGLP-1R and hGIPR cells at 1×10^5 cells/ml).
(§3) To this, 5 μL cell suspension is added and the plates incubated at room temperature for 30 minutes.
(§4) cAMP levels are measured using a commercially available cAMP dynamic 2 HTRF kit (Cisbio, Cat #62AM4PEJ), following the two step protocol as per manufacturer's recommendations. In brief; anti-cAMP cryptate (donor fluorophore) and cAMP-d2 (acceptor fluorophore) are made up separately by diluting each 1/20 in conjugate & lysis buffer provided in the kit. 5 μL anti-cAMP cryptate is added to wells of the assay plate, and 5 μL cAMP-d2 is added to wells except non-specific binding (NSB) wells, to which conjugate and lysis buffer are added. […] EC50 values of the synthetic peptides determined in cAMP assays are then determined.
(§5) Data is transformed to % Delta F as described in the manufacturer's guidelines and analyzed by 4-parameter logistic fit to determine EC50 values. […] To compare the balance of activities at the GLP-1R and GCGR between different peptides and across different conditions, these can be correlated, where the EC50's are related to those of comparator peptides.

[2] = target: T2, human glucose-dependent insulinotropic peptide receptor (GIPR) (Homo sapiens, UniProt P48546); assay: cAMP assay, human GIPR cells
T2 construct: expressed in transfected cells; host or cells: HEK293 cells or CHO cells
T2 sequence (P48546 22-466): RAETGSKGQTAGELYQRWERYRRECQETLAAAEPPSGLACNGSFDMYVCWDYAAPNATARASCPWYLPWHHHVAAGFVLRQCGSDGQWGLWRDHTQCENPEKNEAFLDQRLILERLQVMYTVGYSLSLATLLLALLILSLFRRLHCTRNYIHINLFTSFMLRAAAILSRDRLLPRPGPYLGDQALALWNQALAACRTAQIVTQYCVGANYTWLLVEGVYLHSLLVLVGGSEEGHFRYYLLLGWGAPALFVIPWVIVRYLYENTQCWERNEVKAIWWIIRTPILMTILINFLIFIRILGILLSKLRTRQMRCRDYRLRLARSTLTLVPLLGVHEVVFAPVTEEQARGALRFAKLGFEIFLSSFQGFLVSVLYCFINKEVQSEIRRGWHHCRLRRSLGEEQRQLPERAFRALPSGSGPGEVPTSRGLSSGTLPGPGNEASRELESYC
Protocol: as §1, §2, §3, §4, §5

[3] = target: T3, human GLP-1 receptor (GLP-1R) (Homo sapiens, UniProt P43220); assay: cAMP assay, human GLP-1R cells; settings: for EC50: mean of n1 and n2
T3 construct: expressed in transfected cells; host or cells: HEK293 cells or CHO cells
Method in brief: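 Peptide-stimulated cAMP measured by two-step HTRF after a 30 min room-temperature incubation with receptor-expressing cells (hGLP-1R, hGIPR at 1×10^5 cells/ml; hGCGR at 2×10^5 cells/ml). Duplicate dilutions; EC50 from 4-parameter logistic fit of % Delta F.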

[4] = second replicate (n2), read-out: Primary assay EC50 Gluc-R
[5] = first replicate, read-out: Primary assay EC50 GIP-R
[6] = second replicate (n2), read-out: Primary assay EC50 GIP-R
[7] = replicate n1, read-out: Primary assay EC50 GLP-1R n1
[8] = replicate n2, read-out: Primary assay EC50 GLP-1R n2
[9] = cAMP activity, second determination (n2), read-out: Primary assay EC50 Gluc-R
[10] = cAMP activity, first determination (n1), read-out: Primary assay EC50 GIP-R
[11] = cAMP activity, second determination (n2), read-out: Primary assay EC50 GIP-R
[12] = cAMP activity, first determination (n1), read-out: Primary assay EC50 GLP-1R n1
[13] = cAMP activity, read-out: Mean pM GLP-1R
[14] = cAMP activity, second determination (n2), read-out: Primary assay EC50 GLP-1R n2

T3 sequence (P43220 24-463): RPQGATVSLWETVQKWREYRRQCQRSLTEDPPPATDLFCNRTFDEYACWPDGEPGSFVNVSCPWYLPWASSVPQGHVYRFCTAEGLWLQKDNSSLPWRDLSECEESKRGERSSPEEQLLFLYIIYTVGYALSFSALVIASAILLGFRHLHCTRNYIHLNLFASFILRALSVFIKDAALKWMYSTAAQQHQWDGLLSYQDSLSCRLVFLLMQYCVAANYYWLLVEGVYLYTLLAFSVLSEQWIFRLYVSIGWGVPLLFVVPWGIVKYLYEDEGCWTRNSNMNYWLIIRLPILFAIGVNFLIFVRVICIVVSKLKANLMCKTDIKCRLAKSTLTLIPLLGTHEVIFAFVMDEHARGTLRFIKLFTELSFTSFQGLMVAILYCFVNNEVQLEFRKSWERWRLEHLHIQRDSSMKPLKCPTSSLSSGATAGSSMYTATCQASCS
T1 sequence (P47871 26-477): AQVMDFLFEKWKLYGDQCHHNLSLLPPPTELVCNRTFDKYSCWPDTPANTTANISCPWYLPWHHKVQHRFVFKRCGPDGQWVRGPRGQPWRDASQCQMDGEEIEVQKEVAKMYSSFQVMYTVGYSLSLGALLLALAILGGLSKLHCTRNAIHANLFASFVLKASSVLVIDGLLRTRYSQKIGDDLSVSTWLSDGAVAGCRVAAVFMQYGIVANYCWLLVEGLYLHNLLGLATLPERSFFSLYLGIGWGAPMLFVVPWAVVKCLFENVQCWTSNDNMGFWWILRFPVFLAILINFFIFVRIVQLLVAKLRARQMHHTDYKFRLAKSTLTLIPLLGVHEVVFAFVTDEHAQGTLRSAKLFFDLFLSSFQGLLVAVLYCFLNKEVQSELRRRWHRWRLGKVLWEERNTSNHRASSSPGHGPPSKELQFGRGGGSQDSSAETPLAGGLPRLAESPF

Row | SMILES | pEC50 [1, 4] | pEC50 [2, 5] | pEC50 [2, 6] | EC50 ([3]; read-out: Mean pM GLP-1R) [pM] | pEC50 [3, 7] | pEC50 [3, 8] | pEC50 [1, 9] | pEC50 [2, 10] | pEC50 [2, 11] | pEC50 [3, 12] | EC50 [3, 13] [pM] | pEC50 [3, 14] | other results
1 | CC[C@H](C)[C@H](NC(=O)[C@](C)(Cc1ccccc1)NC(=O)[C@H](CCC(=O)O)NC(=O)[C@](C)(CCCCN)NC(=O)[C@H](C)NC(=O)[C@H](C)NC(=O)[C@H](CCC(=O)O)NC(=O)CNC(=O)[C@H](CCC(=O)O)NC(=O)[C@H](CC(C)C)NC(=O)[C@](C)(Cc1ccccc1)NC(=O)[C@H](CO)NC(=O)[C@](C)(CO)NC(=O)[C@@H](NC(=O)[C@H](CC(=O)O)NC(=O)[C@H](CO)NC(=O)[C@@H](NC(=O)[C@](C)(Cc1ccccc1)NC(=O)[C@H](CO)NC(=O)CNC(=O)[C@H](CCC(=O)O)NC(=O)C(C)(C)NC(=O)[C@@H](N)Cc1c[nH]cn1)[C@@H](C)O)C(C)C)C(=O)N[C@@H](C)C(=O)N[C@@](C)(Cc1ccccc1)C(=O)N[C@H](C(=O)N[C@H](C(=O)N[C@@H](CCCCNC(=O)CCCCCNC(=O)CCCCCNC(=O)CCCCCNC(=O)CCCCCCCCCCCCCCCCC(=O)O)C(=O)NCC(=O)NCC(N)=O)C(C)C)C(C)C [compound 196] | ≤ 7.59 | ≤ 7.59 | ≤ 7.59 | 125 | 9.72 | 10.20 |  |  |  |  |  |  | 
2 | CC[C@H](C)[C@H](NC(=O)[C@](C)(Cc1ccccc1)NC(=O)[C@H](CCC(=O)O)NC(=O)[C@](C)(CCCCN)NC(=O)[C@H](C)NC(=O)[C@H](C)NC(=O)[C@H](CCC(=O)O)NC(=O)CNC(=O)[C@H](CCC(=O)O)NC(=O)[C@H](CC(C)C)NC(=O)[C@](C)(Cc1ccccc1)NC(=O)[C@H](CO)NC(=O)[C@](C)(CO)NC(=O)[C@@H](NC(=O)[C@H](CC(=O)O)NC(=O)[C@H](CO)NC(=O)[C@@H](NC(=O)[C@](C)(Cc1ccccc1)NC(=O)[C@H](CO)NC(=O)CNC(=O)[C@H](CCC(=O)O)NC(=O)C(C)(C)NC(=O)[C@@H](N)Cc1c[nH]cn1)[C@@H](C)O)C(C)C)C(=O)N[C@@H](C)C(=O)N[C@@](C)(Cc1ccccc1)C(=O)N[C@H](C(=O)N[C@H](C(=O)N[C@@H](CCCCNC(=O)COCCOCCNC(=O)CCCCCCCCCCCCCCCCC(=O)O)C(=O)NCC(=O)NCC(N)=O)C(C)C)C(C)C [compound 197] | ≤ 7.57 | ≤ 7.57 | ≤ 7.57 | 79 | 9.92 | 10.47 |  |  |  |  |  |  | 
3 | CC[C@H](C)[C@H](NC(=O)[C@](C)(Cc1ccccc1)NC(=O)[C@H](CCC(=O)O)NC(=O)[C@](C)(CCCCN)NC(=O)[C@H](C)NC(=O)[C@H](C)NC(=O)[C@H](CCC(=O)O)NC(=O)CNC(=O)[C@H](CCC(=O)O)NC(=O)[C@H](CC(C)C)NC(=O)[C@](C)(Cc1ccccc1)NC(=O)[C@H](CO)NC(=O)[C@H](CCCCNC(=O)COCCOCCNC(=O)COCCOCCNC(=O)CC[C@H](NC(=O)CCCCCCCCCCCCCCCCC(=O)O)C(=O)O)NC(=O)[C@@H](NC(=O)[C@H](CC(=O)O)NC(=O)[C@H](CO)NC(=O)[C@@H](NC(=O)[C@](C)(Cc1ccccc1)NC(=O)[C@H](CO)NC(=O)CNC(=O)[C@H](CCC(=O)O)NC(=O)C(C)(C)NC(=O)[C@@H](N)Cc1c[nH]cn1)[C@@H](C)O)C(C)C)C(=O)N[C@@H](C)C(=O)N[C@@](C)(Cc1ccccc1)C(=O)N[C@H](C(=O)N[C@H](C(=O)N[C@@](C)(CCCCN)C(=O)NCC(=O)NCC(N)=O)C(C)C)C(C)C [compound 118] |  |  |  |  |  |  | ≤ 7.60 | ≤ 7.60 | ≤ 7.60 | 9.09 | 783 | 9.12 | 
4 | CC[C@H](C)[C@H](NC(=O)[C@H](Cc1ccccc1)NC(=O)[C@H](CCC(=O)O)NC(=O)[C@](C)(CCCCN)NC(=O)[C@H](C)NC(=O)[C@H](C)NC(=O)[C@H](CCC(=O)O)NC(=O)CNC(=O)[C@H](CCC(=O)O)NC(=O)[C@H](CC(C)C)NC(=O)[C@H](CCCCNC(=O)COCCOCCNC(=O)COCCOCCNC(=O)CC[C@H](NC(=O)CCCCCCCCCCCCCCC(=O)O)C(=O)O)NC(=O)[C@H](CO)NC(=O)[C@](C)(CO)NC(=O)[C@@H](NC(=O)[C@H](CC(=O)O)NC(=O)[C@H](CO)NC(=O)[C@@H](NC(=O)[C@](C)(Cc1ccccc1)NC(=O)[C@H](CO)NC(=O)CNC(=O)[C@H](CCC(=O)O)NC(=O)C(C)(C)NC(=O)[C@@H](N)Cc1c[nH]cn1)[C@@H](C)O)C(C)C)C(=O)N[C@@H](C)C(=O)N[C@@H](Cc1c[nH]c2ccccc12)C(=O)N[C@@H](CCCCNC(=O)COCCOCCNC(=O)COCCOCCNC(=O)CC[C@H](NC(=O)CCCCCCCCCCCCCCC(=O)O)C(=O)O)C(=O)N[C@H](C(=O)N[C@@H](CCC(=O)O)C(=O)NCC(=O)NCC(N)=O)C(C)C [compound 267] (H-H[Aib]EGS[αMeF]TSDV[αMeS]SK([AEEA-AEEA-γGlu-C16 diacid])LEGEAA[αMeK]EFIAWK([AEEA-AEEA-γGlu-C16 diacid])VEGG-NH2; N-terminus assumed) |  |  |  |  |  |  |  |  |  |  |  |  | pEC50 ([1]; Table 9, bis-lipidated peptides, first replicate, read-out: Primary assay EC50 Gluc-R (n1)): ≤ 7.66; pEC50 ([1]; Table 9, bis-lipidated peptides, second replicate, read-out: Primary assay EC50 Gluc-R (n2)): ≤ 7.66; pEC50 ([2]; Table 9, bis-lipidated peptides, first replicate, read-out: Primary assay EC50 GIP-R (n1)): ≤ 7.66; pEC50 ([2]; Table 9, bis-lipidated peptides, second replicate, read-out: Primary assay EC50 GIP-R (n2)): ≤ 7.66; EC50 ([3]; Table 9, bis-lipidated peptides, read-out: Primary assay EC50 Mean pM GLP-1R): 569 pM; pEC50 ([3]; Table 9, bis-lipidated peptides, replicate n1, read-out: Primary assay EC50 GLP-1R n1): 9.20; pEC50 ([3]; Table 9, bis-lipidated peptides, replicate n2, read-out: Primary assay EC50 GLP-1R n2): 9.29
5 | CC(C)C[C@H](NC(=O)[C@](C)(Cc1ccccc1)NC(=O)[C@H](CO)NC(=O)[C@](C)(CO)NC(=O)[C@@H](NC(=O)[C@H](CC(=O)O)NC(=O)[C@H](CO)NC(=O)[C@@H](NC(=O)[C@](C)(Cc1ccccc1)NC(=O)[C@H](CO)NC(=O)CNC(=O)[C@H](CCC(=O)O)NC(=O)C(C)(C)NC(=O)[C@@H](N)Cc1c[nH]cn1)[C@@H](C)O)C(C)C)C(=O)N[C@@H](CCC(=O)O)C(=O)NCC(=O)N[C@@H](CCC(=O)O)C(=O)N[C@@H](C)C(=O)N[C@@H](C)C(=O)N[C@@](C)(CCCCN)C(=O)N[C@@H](CCC(=O)O)C(=O)N[C@@](C)(Cc1ccccc1)C(=O)N[C@@H](CCCCNC(=O)COCCOCCNC(=O)COCCOCCNC(=O)CC[C@H](NC(=O)CCCCCCCCCCCCCCCCC(=O)O)C(=O)O)C(=O)N[C@@H](C)C(=O)N[C@@](C)(Cc1ccccc1)C(=O)N[C@H](C(=O)N[C@H](C(=O)N[C@@](C)(CCCCN)C(=O)NCC(=O)NCC(N)=O)C(C)C)C(C)C [compound 106] (H-H[Aib]EGS[αMeF]TSDV[αMeS]S[αMeF]LEGEAA[αMeK]E[αMeF]K([AEEA-AEEA-γGlu-C18 diacid])A[αMeF]VV[αMeK]GG-NH2) |  |  |  |  |  |  | ≤ 7.60 | ≤ 7.60 | ≤ 7.60 | 8.19 | 6140 | 8.24 | 
